Test results published in US9695155B2, “Herbicidal substituted pyrimidinyloxy benzene compounds” (E. I. DU PONT DE NEMOURS AND COMPANY, priority 2013, dated 2017).

Experiments:
[1] = tested on: rice; test: Test B flooded paddy test; format: in vivo, Oryza sativa; conditions: Flood, 250 g ai/ha, 0 to 100 scale where 0 is no effect and 100 is complete control
Procedure, shortened: (§1)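 Greenhouse flooded-pot test: compounds dosed into 3 cm standing water over 2-leaf plants, flood held constant. Rated visually after 13–15 days on 0–100 (complete control = 100); a dash marks no test result.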

[2] = tested on: pigweed; test: Test A postemergence; format: in vivo, Amaranthus retroflexus
Procedure, shortened: (§2)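 Visual injury scored 0–100 (100 = complete control) against untreated controls about 10 days after treatment in a greenhouse. Test chemicals, formulated with surfactant in non-phytotoxic solvent, were sprayed on soil preemergence or on 2-10 cm, one- to two-leaf plants postemergence.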

[3] = tested on: corn; test: Test A postemergence; format: in vivo, Zea mays
Procedure, shortened: as §2

[4] = tested on: barnyardgrass; test: Test A postemergence; format: in vivo, Echinochloa crus-galli
Procedure, shortened: as §2

[5] = tested on: barnyardgrass; test: Test A preemergence; format: in vivo, Echinochloa crus-galli; conditions: for Barnyardgrass plant response rating (0 to 100 scale, 0 is no effect, 100 is complete control): 125 g ai/ha
Procedure, shortened: as §2

[6] = tested on: sedge, umbrella; test: Test B flooded paddy test; format: in vivo, Cyperus difformis; conditions: Flood, 250 g ai/ha, 0 to 100 scale where 0 is no effect and 100 is complete control
Procedure, shortened: as §1

[7] = tested on: kochia; test: Test C postemergence; format: in vivo, Kochia scoparia
Procedure, shortened: (§3)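 Sown in loam/sand → sprayed pre-emergence; or grown to 1–4 leaves in peat mix → sprayed post-emergence. Same solvent/surfactant formulation both ways. Greenhouse 13–15 d. Score 0–100 visual.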

[8] = tested on: galium; test: Test C postemergence; format: in vivo, Galium aparine
Procedure, shortened: as §3

[9] = tested on: velvetleaf; test: Test C postemergence; format: in vivo, Abutilon theophrasti; conditions: for Velvetleaf plant response rating: 31 g ai/ha
Procedure, shortened: as §3

[10] = tested on: pigweed; test: Test A preemergence; format: in vivo, Amaranthus retroflexus; conditions: for Pigweed plant response rating (0 to 100 scale): 125 g ai/ha
Procedure, shortened: as §2

[11] = tested on: barnyardgrass; test: Test C postemergence; format: in vivo, Echinochloa crus-galli
Procedure, shortened: as §3

[12] = tested on: giant foxtail; test: Test A postemergence; format: in vivo, Setaria faberii
Procedure, shortened: as §2

[13] = tested on: pigweed; test: Test C postemergence; format: in vivo, Amaranthus retroflexus; conditions: for Pigweed plant response rating: 31 g ai/ha
Procedure, shortened: as §3

[14] = tested on: Heteranthera limosa; test: Test B flooded paddy test; format: in vivo; conditions: Flood, 250 g ai/ha, 0 to 100 scale where 0 is no effect and 100 is complete control
Procedure, shortened: as §1

[15] = tested on: wheat; test: Test A postemergence; format: in vivo, Triticum aestivum
Procedure, shortened: as §2

[16] = postemergence, visual rating, scale 0 to 100 (0 no effect, 100 complete control), 13 to 15 days
[17] = 125 g ai/ha, 0 to 100 scale, 0 no effect, 100 complete control
[18] = 500 g ai/ha, 0 to 100 scale where 0 is no effect and 100 is complete control
[19] = 16 g ai/ha, postemergence, 0 is no effect, 100 is complete control
[20] = 31 g ai/ha, postemergence, visual rating, scale 0 to 100 (0 no effect, 100 complete control), 13 to 15 days
[21] = 125 g ai/ha, postemergence, visual rating, scale 0 to 100 (0 no effect, 100 complete control)
[22] = Postemergence, 62 g ai/ha, scale 0 to 100 (0 no effect, 100 complete control), 13 to 15 days
[23] = Postemergence, 62 g ai/ha, scale 0 to 100 (0 no effect, 100 complete control)
[24] = 31 g ai/ha, 0 to 100 scale, 0 no effect, 100 complete control
[25] = 31 g ai/ha, 0 to 100 scale where 0 is no effect and 100 is complete control, visual, approximately 10 days

Clc1cnc(Oc2ccccc2-n2cc(C3CC3)nn2)nc1 [Compound 160, 5-chloro-2-[2-(4-cyclopropyl-1H-1,2,3-triazol-1-yl)phenoxy]pyrimidine]
plant injury at 250 g/ha ([1]; Oryza sativa, read-out: Plant response rating, Rice): 35%
pest or weed control at 1000 g/ha ([2]; Amaranthus retroflexus, post-emergence, 240 h, 1000 g ai/ha, 0 to 100 scale, 0 no effect, 100 complete control, read-out: Plant response rating Pigweed): 100%
plant injury at 1000 g/ha ([3]; Zea mays, post-emergence, 240 h, 1000 g ai/ha, 0 to 100 scale, 0 no effect, 100 complete control, read-out: Plant response rating Corn): 100%
pest or weed control at 1000 g/ha ([4]; Echinochloa crus-galli, post-emergence, 240 h, 1000 g ai/ha, 0 to 100 scale, 0 no effect, 100 complete control, read-out: Plant response rating Barnyardgrass): 100%
pest or weed control at 1000 g/ha ([5]; Echinochloa crus-galli, pre-emergence, 240 h, 1000 g ai/ha, 0 to 100 scale, 0 no effect, 100 complete control, approx. 10 days, read-out: Barnyardgrass plant response rating): 100%
pest or weed control at 250 g/ha ([6]; Cyperus difformis, read-out: Plant response rating, Sedge, Umbrella): 75%
pest or weed control at 16 g/ha ([7]; Bassia scoparia, post-emergence, 16 g ai/ha, postemergence, 0 is no effect, 100 is complete control, read-out: Plant response rating (0 to 100), Kochia): 85%
pest or weed control at 31 g/ha ([7]; Bassia scoparia, post-emergence, 31 g ai/ha, postemergence, visual rating, scale 0 to 100 (0 no effect, 100 complete control), 13 to 15 days, read-out: Kochia plant response rating): 90%
pest or weed control at 125 g/ha ([7]; Bassia scoparia, post-emergence, 125 g ai/ha, postemergence, visual rating, scale 0 to 100 (0 no effect, 100 complete control), read-out: Plant response rating, Kochia): 100%
pest or weed control at 62 g/ha ([7]; Bassia scoparia, post-emergence, Postemergence, 62 g ai/ha, scale 0 to 100 (0 no effect, 100 complete control), read-out: Plant response rating, Kochia): 98%
pest or weed control at 16 g/ha ([8]; Galium, post-emergence, 16 g ai/ha, postemergence, 0 is no effect, 100 is complete control, read-out: Plant response rating (0 to 100), Galium): 80%
pest or weed control at 31 g/ha ([8]; Galium, post-emergence, 31 g ai/ha, postemergence, visual rating, scale 0 to 100 (0 no effect, 100 complete control), 13 to 15 days, read-out: Galium plant response rating): 80%
pest or weed control at 125 g/ha ([8]; Galium, post-emergence, 125 g ai/ha, postemergence, visual rating, scale 0 to 100 (0 no effect, 100 complete control), read-out: Plant response rating, Galium): 85%
pest or weed control at 62 g/ha ([8]; Galium, post-emergence, Postemergence, 62 g ai/ha, scale 0 to 100 (0 no effect, 100 complete control), read-out: Plant response rating, Galium): 95%
Velvetleaf plant response rating [9, 16]: 65
pest or weed control at 16 g/ha ([9]; Abutilon theophrasti, post-emergence, 16 g ai/ha, postemergence, 0 is no effect, 100 is complete control, read-out: Plant response rating (0 to 100), Velvetleaf): 45%
pest or weed control at 125 g/ha ([9]; Abutilon theophrasti, post-emergence, 125 g ai/ha, postemergence, visual rating, scale 0 to 100 (0 no effect, 100 complete control), read-out: Plant response rating, Velvetleaf): 90%
pest or weed control at 62 g/ha ([9]; Abutilon theophrasti, post-emergence, Postemergence, 62 g ai/ha, scale 0 to 100 (0 no effect, 100 complete control), read-out: Plant response rating, Velvetleaf): 80%
pest or weed control at 1000 g/ha ([10]; Amaranthus retroflexus, pre-emergence, 240 h, 1000 g ai/ha, 0 to 100 scale, 0 no effect, 100 complete control, approx. 10 days, read-out: Pigweed plant response rating): 100%
pest or weed control at 16 g/ha ([11]; Echinochloa crus-galli, post-emergence, 16 g ai/ha, postemergence, 0 is no effect, 100 is complete control, read-out: Plant response rating (0 to 100), Barnyardgrass): 5%
pest or weed control at 31 g/ha ([11]; Echinochloa crus-galli, post-emergence, 31 g ai/ha, postemergence, visual rating, scale 0 to 100 (0 no effect, 100 complete control), 13 to 15 days, read-out: Barnyardgrass plant response rating): 5%
pest or weed control at 125 g/ha ([11]; Echinochloa crus-galli, post-emergence, 125 g ai/ha, postemergence, visual rating, scale 0 to 100 (0 no effect, 100 complete control), read-out: Plant response rating, Barnyardgrass): 5%
pest or weed control at 62 g/ha ([11]; Echinochloa crus-galli, post-emergence, Postemergence, 62 g ai/ha, scale 0 to 100 (0 no effect, 100 complete control), read-out: Plant response rating, Barnyardgrass): 5%
pest or weed control at 1000 g/ha ([12]; Setaria faberi, post-emergence, 240 h, 1000 g ai/ha, 0 to 100 scale, 0 no effect, 100 complete control, read-out: Plant response rating Foxtail, Giant): 100%
Pigweed plant response rating [13, 16]: 75
pest or weed control at 16 g/ha ([13]; Amaranthus retroflexus, post-emergence, 16 g ai/ha, postemergence, 0 is no effect, 100 is complete control, read-out: Plant response rating (0 to 100), Pigweed): 80%
pest or weed control at 125 g/ha ([13]; Amaranthus retroflexus, post-emergence, 125 g ai/ha, postemergence, visual rating, scale 0 to 100 (0 no effect, 100 complete control), read-out: Plant response rating, Pigweed): 85%
pest or weed control at 62 g/ha ([13]; Amaranthus retroflexus, post-emergence, Postemergence, 62 g ai/ha, scale 0 to 100 (0 no effect, 100 complete control), read-out: Plant response rating, Pigweed): 75%
pest or weed control at 250 g/ha ([14]; Heteranthera limosa, read-out: Plant response rating, Ducksalad): 80%
plant injury at 1000 g/ha ([15]; Triticum aestivum, post-emergence, 240 h, 1000 g ai/ha, 0 to 100 scale, 0 no effect, 100 complete control, read-out: Plant response rating Wheat): 100%

N#Cc1cnn(-c2c(Oc3ncc(F)cn3)cccc2C(F)F)c1 [Compound 240]
Plant response rating, Rice [1]: 0
Plant response rating, Pigweed [2, 17]: 100
Plant response rating, Pigweed [2, 18]: 100
Plant response rating, Corn [3, 17]: 30
Plant response rating, Corn [3, 18]: 90
Plant response rating, Barnyardgrass [4, 17]: 90
Plant response rating, Barnyardgrass [4, 18]: 100
Barnyardgrass plant response rating (0 to 100 scale, 0 is no effect, 100 is complete control) [5]: 90
Barnyardgrass plant response rating [5, 18]: 100
Plant response rating, Sedge, Umbrella [6]: 30
Plant response rating (0 to 100), Kochia [7, 19]: 40
Kochia plant response rating [7, 20]: 45
Plant response rating, Kochia [7, 21]: 90
Plant response rating, Kochia [7, 22]: 45
Plant response rating (0 to 100), Galium [8, 19]: 35
Galium plant response rating [8, 20]: 40
Plant response rating, Galium [8, 21]: 70
Plant response rating, Galium [8, 22]: 55
Plant response rating (0 to 100), Velvetleaf [9, 19]: 10
Velvetleaf plant response rating [9, 16]: 25
Plant response rating, Velvetleaf [9, 21]: 80
Plant response rating, Velvetleaf [9, 22]: 45
Pigweed plant response rating (0 to 100 scale) [10]: 100
Pigweed plant response rating [10, 18]: 100
Plant response rating (0 to 100), Barnyardgrass [11, 19]: 0
Barnyardgrass plant response rating [11, 20]: 10
Plant response rating, Barnyardgrass [11, 21]: 20
Plant response rating, Barnyardgrass [11, 23]: 10
Plant response rating, Foxtail, Giant [12, 17]: 90
Plant response rating, Foxtail, Giant [12, 18]: 100
Plant response rating (0 to 100), Pigweed [13, 19]: 15
Pigweed plant response rating [13, 16]: 30
Plant response rating, Pigweed [13, 21]: 75
Plant response rating, Pigweed [13, 22]: 45
Plant response rating, Ducksalad [14]: 50
Plant response rating, Wheat [15, 17]: 30
Plant response rating, Wheat [15, 18]: 90

FCc1cccc(Oc2ncc(Cl)cn2)c1-n1cc(I)cn1 [Compound 245]
Plant response rating, Rice [1]: 0
Plant response rating, Pigweed [2, 24]: 0
Plant response rating, Pigweed [2, 17]: 90
Plant response rating, Corn [3, 24]: 20
Plant response rating, Corn [3, 17]: 40
Plant response rating, Barnyardgrass [4, 24]: 0
Plant response rating, Barnyardgrass [4, 17]: 30
Plant response rating, Barnyardgrass [5, 25]: 0
Barnyardgrass plant response rating (0 to 100 scale, 0 is no effect, 100 is complete control) [5]: 70
Plant response rating, Sedge, Umbrella [6]: 60
Plant response rating (0 to 100), Kochia [7, 19]: 45
Kochia plant response rating [7, 20]: 75
Plant response rating, Kochia [7, 21]: 98
Plant response rating, Kochia [7, 22]: 90
Plant response rating (0 to 100), Galium [8, 19]: 60
Galium plant response rating [8, 20]: 60
Plant response rating, Galium [8, 21]: 85
Plant response rating, Galium [8, 22]: 80
Plant response rating (0 to 100), Velvetleaf [9, 19]: 5
Velvetleaf plant response rating [9, 16]: 10
Plant response rating, Velvetleaf [9, 21]: 55
Plant response rating, Velvetleaf [9, 22]: 35
Plant response rating, Pigweed [10, 25]: 90
Pigweed plant response rating (0 to 100 scale) [10]: 90
Plant response rating (0 to 100), Barnyardgrass [11, 19]: 5
Barnyardgrass plant response rating [11, 20]: 5
Plant response rating, Barnyardgrass [11, 21]: 5
Plant response rating, Barnyardgrass [11, 23]: 5
Plant response rating, Foxtail, Giant [12, 24]: 0
Plant response rating, Foxtail, Giant [12, 17]: 80
Plant response rating (0 to 100), Pigweed [13, 19]: 40
Pigweed plant response rating [13, 16]: 55
Plant response rating, Pigweed [13, 21]: 85
Plant response rating, Pigweed [13, 22]: 75
Plant response rating, Ducksalad [14]: 75
Plant response rating, Wheat [15, 24]: 20
Plant response rating, Wheat [15, 17]: 40
